# In paper PMC11510023, “A Novel Cold-Adapted Nitronate Monooxygenase from Psychrobacter sp. ANT206: Identification, Characterization and Degradation of 2-Nitropropane at Low Temperature” (Microorganisms, 2024):
# Test system: T1, rPsNMO
# T1 construct: gene psnmo; N-terminal His-tag, pET28a(+), E. coli BL21(DE3)
# Experiment: nitrite release, colorimetric at […] nm; Lineweaver-Burk
# Assay type: biochemical, Psychrobacter sp. ANT206
# Conditions: 30 °C, pH 7.5 potassium phosphate, 6-12 mM 2-NP; substrate pre-equilibrated 24 h with equal KOH to give the anionic form (propane-2-nitronate)
substance,measurement,value
2-NP,Km,10.3 mM
